Assay results from ChEMBL document CHEMBL4373736, “Synthesis and biological evaluation of panaxatriol derivatives against myocardial ischemia/reperfusion injury in the rat” (Eur J Med Chem, 2020).

Columns and labels:
Cardiac muscle cell [1] = experiment: Cytoprotective activity against OGD/reperfusion induced injury in Sprague-Dawley rat cardiomyocytes assessed as effect on cell viability at 0.1 uM pretreated for 24 hrs followed by OGD for 2 hrs and subsequent reperfusion for 24 hrs (reference value: 43.9 to 45.4 +/- 1.1 %); format: functional
Cardiac muscle cell [2] = experiment: Cytotoxicity against Sprague-Dawley rat cardiomyocytes assessed as inhibition of cell growth at 10 uM treated for 50 hrs by MTT assay; format: cell-based
Cardiac muscle cell [3] = experiment: Cytoprotective activity against OGD/reperfusion induced injury in Sprague-Dawley rat cardiomyocytes assessed as effect on cell viability at 1 uM pretreated for 24 hrs followed by OGD for 2 hrs and subsequent reperfusion for 24 hrs (reference value: 43.9 to 45.4 +/- 1.1 %); format: functional
Cardiac muscle cell [4] = experiment: Cytoprotective activity against OGD/reperfusion induced injury in Sprague-Dawley rat cardiomyocytes assessed as effect on cell viability at 10 uM pretreated for 24 hrs followed by OGD for 2 hrs and subsequent reperfusion for 24 hrs (reference value: 43.9 to 45.4 +/- 1.1 %); format: functional

Structure (SMILES)	Activity (Cardiac muscle cell [1])	Activity (Cardiac muscle cell [2])	Activity (Cardiac muscle cell [3])	Activity (Cardiac muscle cell [4])
CC1(C)CCC[C@](C)([C@H]2CC[C@]3(C)[C@@H]2[C@H](O)C[C@@H]2[C@@]4(C)Cc5c[nH]nc5C(C)(C)[C@@H]4[C@H](O)C[C@]23C)O1	48.6%	Non-Toxic	55.9%	61.7%
CC1(C)CCC[C@](C)([C@H]2CC[C@]3(C)[C@@H]2[C@H](O)C[C@@H]2[C@@]4(C)Cc5sc(-c6ccc(Cl)cc6)nc5C(C)(C)[C@@H]4C(=O)C[C@]23C)O1	49.5%	Non-Toxic	54.8%	60.3%
CC1(C)CCC[C@](C)([C@H]2CC[C@]3(C)[C@@H]2[C@H](O)C[C@@H]2[C@@]4(C)Cc5sc(N)nc5C(C)(C)[C@@H]4[C@@H](O)C[C@]23C)O1	52.4%	Non-Toxic	57.6%	62.4%
CCOC(=O)c1nc2c(s1)C[C@]1(C)[C@H]3C[C@@H](O)[C@@H]4[C@@H]([C@@]5(C)CCCC(C)(C)O5)CC[C@@]4(C)[C@]3(C)CC(=O)[C@H]1C2(C)C	59.1%	Non-Toxic	75.3%	86.6%
Cc1nc2c(s1)C[C@]1(C)[C@H]3C[C@@H](O)[C@@H]4[C@@H]([C@@]5(C)CCCC(C)(C)O5)CC[C@@]4(C)[C@]3(C)CC(=O)[C@H]1C2(C)C	48.7%	Non-Toxic	52.1%	58.5%
CC(C)c1nc2c(s1)C[C@]1(C)[C@H]3C[C@@H](O)[C@@H]4[C@@H]([C@@]5(C)CCCC(C)(C)O5)CC[C@@]4(C)[C@]3(C)CC(=O)[C@H]1C2(C)C	50.6%	Non-Toxic	59.5%	66%
CC1(C)CCC[C@](C)([C@H]2CC[C@]3(C)[C@@H]2[C@H](O)C[C@@H]2[C@@]4(C)Cc5sc(Nc6ccccc6)nc5C(C)(C)[C@@H]4C(=O)C[C@]23C)O1	49.7%	Non-Toxic	56%	63%
CC1(C)CCC[C@](C)([C@H]2CC[C@]3(C)[C@@H]2[C@H](O)C[C@@H]2[C@@]4(C)Cc5sc(NC(=N)N)nc5C(C)(C)[C@@H]4C(=O)C[C@]23C)O1	48.9%	Non-Toxic	52.5%	57.2%
CC1(C)CCC[C@](C)([C@H]2CC[C@]3(C)[C@@H]2[C@H](O)C[C@@H]2[C@@]4(C)Cc5cnn(-c6ccc(F)cc6)c5C(C)(C)[C@@H]4[C@H](O)C[C@]23C)O1	56.5%	Non-Toxic	65.3%	73.2%
COc1ccc2[nH]c3c(c2c1)C[C@]1(C)[C@H]2C[C@@H](O)[C@@H]4[C@@H]([C@@]5(C)CCCC(C)(C)O5)CC[C@@]4(C)[C@]2(C)CC(=O)[C@H]1C3(C)C	70.1%	Non-Toxic	79.6%	88%
CC1(C)CCC[C@](C)([C@H]2CC[C@]3(C)[C@@H]2[C@H](O)C[C@@H]2[C@@]4(C)Cc5sc(-c6ccccc6)nc5C(C)(C)[C@@H]4C(=O)C[C@]23C)O1	59.1%	Non-Toxic	68%	75.3%
CC1(C)CCC[C@](C)([C@H]2CC[C@]3(C)[C@@H]2[C@H](O)C[C@@H]2[C@@]4(C)Cc5c([nH]c6c(Cl)cc(F)cc56)C(C)(C)[C@@H]4C(=O)C[C@]23C)O1	52.9%	Non-Toxic	57.1%	62.1%
CC1(C)CCC[C@](C)([C@H]2CC[C@]3(C)[C@@H]2[C@H](O)C[C@@H]2[C@@]4(C)Cc5cnoc5C(C)(C)[C@@H]4[C@H](O)C[C@]23C)O1	60.6%	Non-Toxic	67.2%	76.9%
C=CCNc1nc2c(s1)C[C@]1(C)[C@H]3C[C@@H](O)[C@@H]4[C@@H]([C@@]5(C)CCCC(C)(C)O5)CC[C@@]4(C)[C@]3(C)CC(=O)[C@H]1C2(C)C	61.6%	Non-Toxic	70%	77.4%
CNc1nc2c(s1)C[C@]1(C)[C@H]3C[C@@H](O)[C@@H]4[C@@H]([C@@]5(C)CCCC(C)(C)O5)CC[C@@]4(C)[C@]3(C)CC(=O)[C@H]1C2(C)C	47%	Non-Toxic	52.7%	58.8%
CC1(C)CCC[C@](C)([C@H]2CC[C@]3(C)[C@@H]2[C@H](O)C[C@@H]2[C@@]4(C)Cc5sc(-c6cccnc6)nc5C(C)(C)[C@@H]4C(=O)C[C@]23C)O1	46.9%	Non-Toxic	51.3%	57.2%
Cc1ccc2[nH]c3c(c2c1)C[C@]1(C)[C@H]2C[C@@H](O)[C@@H]4[C@@H]([C@@]5(C)CCCC(C)(C)O5)CC[C@@]4(C)[C@]2(C)CC(=O)[C@H]1C3(C)C	58.9%	Non-Toxic	66.4%	73.8%
CC1(C)CCC[C@](C)([C@H]2CC[C@]3(C)[C@@H]2[C@H](O)C[C@@H]2[C@@]4(C)Cc5cnn(-c6ccccc6)c5C(C)(C)[C@@H]4[C@H](O)C[C@]23C)O1	50.8%	Non-Toxic	57.3%	62.5%
CC1(C)CCC[C@](C)([C@H]2CC[C@]3(C)[C@@H]2[C@H](O)C[C@@H]2[C@@]4(C)Cc5c([nH]c6ccccc56)C(C)(C)[C@@H]4C(=O)C[C@]23C)O1	56.9%	Non-Toxic	64.3%	71.1%
CC1(C)CCC[C@](C)([C@H]2CC[C@]3(C)[C@@H]2[C@H](O)C[C@@H]2[C@@]4(C)Cc5c([nH]c6ccc(S(N)(=O)=O)cc56)C(C)(C)[C@@H]4C(=O)C[C@]23C)O1	55.1%	Non-Toxic	61.5%	66.3%
CCOC(=O)c1noc2c1C[C@]1(C)[C@H]3C[C@@H](O)[C@@H]4[C@@H]([C@@]5(C)CCCC(C)(C)O5)CC[C@@]4(C)[C@]3(C)C[C@@H](O)[C@H]1C2(C)C	57.5%	Non-Toxic	67.9%	74.7%
CC1(C)CCC[C@](C)([C@H]2CC[C@]3(C)[C@@H]2[C@H](O)C[C@@H]2[C@@]4(C)Cc5c([nH]c6ccc(Cl)cc56)C(C)(C)[C@@H]4C(=O)C[C@]23C)O1	51.7%	Non-Toxic	57.3%	62.7%
CCOC(=O)c1nn(-c2ccccc2)c2c1C[C@]1(C)[C@H]3C[C@@H](O)[C@@H]4[C@@H]([C@@]5(C)CCCC(C)(C)O5)CC[C@@]4(C)[C@]3(C)C[C@@H](O)[C@H]1C2(C)C	51.4%	Non-Toxic	56.8%	63.6%
CC1(C)CCC[C@](C)([C@H]2CC[C@]3(C)[C@@H]2[C@H](O)C[C@@H]2[C@@]4(C)Cc5sc(N)nc5C(C)(C)[C@@H]4C(=O)C[C@]23C)O1	60.2%	Non-Toxic	70.2%	77.7%
COc1ccc(-c2nc3c(s2)C[C@]2(C)[C@H]4C[C@@H](O)[C@@H]5[C@@H]([C@@]6(C)CCCC(C)(C)O6)CC[C@@]5(C)[C@]4(C)CC(=O)[C@H]2C3(C)C)cc1	64.9%	Non-Toxic	71.3%	78.5%
CCOC(=O)c1[nH]nc2c1C[C@]1(C)[C@H]3C[C@@H](O)[C@@H]4[C@@H]([C@@]5(C)CCCC(C)(C)O5)CC[C@@]4(C)[C@]3(C)C[C@@H](O)[C@H]1C2(C)C	48%	Non-Toxic	54.1%	60.4%
CC1(C)CCC[C@](C)([C@H]2CC[C@]3(C)[C@@H]2[C@H](O)C[C@@H]2[C@@]4(C)Cc5c(n[nH]c5CO)C(C)(C)[C@@H]4[C@H](O)C[C@]23C)O1	55%	Non-Toxic	64.6%	75.7%
CC1(C)CCC[C@](C)([C@H]2CC[C@]3(C)[C@@H]2[C@H](O)C[C@@H]2[C@@]4(C)Cc5c([nH]c6c(F)cccc56)C(C)(C)[C@@H]4C(=O)C[C@]23C)O1	53.5%	Non-Toxic	58%	62.6%
CC1(C)CCC[C@](C)([C@H]2CC[C@]3(C)[C@@H]2[C@H](O)C[C@@H]2[C@@]4(C)Cc5nccnc5C(C)(C)[C@@H]4C(=O)C[C@]23C)O1	56.4%	Non-Toxic	64%	71.5%
CC1(C)CCC[C@](C)([C@H]2CC[C@]3(C)[C@@H]2[C@H](O)C[C@@H]2[C@@]4(C)Cc5nccnc5C(C)(C)[C@@H]4[C@@H](O)C[C@]23C)O1	54.9%	Non-Toxic	62.3%	70.3%
